Results on 19 molecules are retold here after ChEMBL document CHEMBL3045144, “Relationship between physicochemical properties and herbicidal activity of 1,2,5-oxadiazole N-oxide derivatives” (Molecules, 2005).

The subject of data set [1] is Triticum aestivum. Kind of data set: Pre-emergence herbicidal activity against Triticum aestivum L. (wheat) assessed change in aerial weight. The format is functional. Also noted: concentration or dose not given beside the values.
Data set [2] can be described thus: Retention factor, logKw of the compound in pure aqueous mobile phases by RP-HPLC method. The format is physicochemical. Particulars: buffer.
For data set [3], the system named is Triticum aestivum. Kind of data set: Pre-emergence herbicidal activity against Triticum aestivum L. (wheat) assessed change in radicular weight. The format is functional. Also noted: concentration or dose not given beside the values.
Data set [4] concerns Triticum aestivum. The data set is described as follows: Pre-emergence herbicidal activity against Triticum aestivum L. (wheat) assessed change in leaf length. Details: concentration or dose not given beside the values. The format is functional.

`COC(=O)N/N=C/c1ccc2nonc2c1`: the Activity in the data set with Triticum aestivum [1] came out at 35%; in the data set on Triticum aestivum [3] it was 20%. The logKw in data set [2] was 2.21.

In the case of `O=Cc1ccc2c(c1)no[n+]2[O-]`, the Activity in the data set on Triticum aestivum [1] is reported as -30%; in the data set with Triticum aestivum [3] it was -5%; in the data set on Triticum aestivum [4] it was -0.93%. In addition, in data set [2], the logKw was found to be 2.4.

Take `O=C(O)c1ccc2c(c1)no[n+]2[O-]`: the Activity in the data set with Triticum aestivum [1] is on record as -16%; with Triticum aestivum [3] it was -9%.

Regarding `COC(=O)N/N=C/c1no[n+]([O-])c1C`, the Activity is on record as -50% in the data set with Triticum aestivum [1], -50% with Triticum aestivum [3] and -2.08% in the data set on Triticum aestivum [4]. Besides, the logKw in data set [2] came out at 1.47.

Turning to `Cc1ccc2c(c1)no[n+]2[O-]`, the Activity in the data set with Triticum aestivum [1] is recorded as -58%; in the data set with Triticum aestivum [3] it was -58%; in the data set with Triticum aestivum [4], -2%. The molecule further had a logKw in data set [2] of 2.18.

Turning to `COCCNC(=O)N/N=C\c1ccc2c(c1)no[n+]2[O-]`, the logKw in data set [2] is reported as 2.31. The Activity in the data set on Triticum aestivum [4] is recorded as -1.1%.

For `CCCCNC(=O)c1ccc2c(c1)no[n+]2[O-]`, the Activity in the data set on Triticum aestivum [1] is listed as -71%; in the data set on Triticum aestivum [3], -66%; in the data set with Triticum aestivum [4], -1.54%. This molecule displayed a logKw in data set [2] of 2.74.

For `[O-][n+]1onc(-c2ccccc2)c1CCl`, the Activity in the data set on Triticum aestivum [1] was -4%; with Triticum aestivum [3] it was -7%; in the data set on Triticum aestivum [4] it was -0.99%. Moreover, in data set [2], the logKw worked out at 4.24.

Turning to `Cc1c(C=O)no[n+]1[O-]`, the Activity is on record as -5% with Triticum aestivum [1], -5% in the data set with Triticum aestivum [3] and -1.62% in the data set with Triticum aestivum [4]. The logKw in data set [2] is given as 0.22.

Consider `COC(=O)N/N=C/c1c(-c2ccccc2)no[n+]1[O-]`, for which the Activity with Triticum aestivum [1] is given as -22%; in the data set with Triticum aestivum [3] it was 16%; in the data set with Triticum aestivum [4], -1.19%. Besides, in data set [2], the logKw turned out to be 3.34.

As for `COCCNC(=O)c1ccc2c(c1)no[n+]2[O-]`, the Activity is recorded as -23% in the data set with Triticum aestivum [1], -2% in the data set on Triticum aestivum [3] and -1.54% with Triticum aestivum [4]. In data set [2], this molecule yielded a logKw of 1.46.

As to `O=C(c1ccc2c(c1)no[n+]2[O-])N1CCOCC1`, the Activity in the data set on Triticum aestivum [1] is listed as -55%; in the data set with Triticum aestivum [3], -52%; in the data set with Triticum aestivum [4], -2.06%. This molecule also yielded a logKw in data set [2] of 1.27.

As for `COC(=O)N/N=C\c1ccc2c(c1)no[n+]2[O-]`, the Activity with Triticum aestivum [1] is recorded as -6%; in the data set with Triticum aestivum [3], 13%; in the data set on Triticum aestivum [4] it was -1.17%. The molecule further yielded a logKw in data set [2] of 2.02.

Turning to `O=C(Nc1ccc(Cl)cc1)c1ccc2c(c1)no[n+]2[O-]`, the values for the Activity with Triticum aestivum [1], in the data set on Triticum aestivum [3] and in the data set with Triticum aestivum [4] were -50%, -73% and -1.43%, respectively.

On to `Cc1c(/C=N/NC(N)=S)no[n+]1[O-]`, for which, in data set [2], the logKw turned out to be 1.18. Moreover, in the data set on Triticum aestivum [3], the Activity is listed as -95%.

On to `Cc1c(/C=N/NC(=O)NC2CCCCC2)no[n+]1[O-]`, for which the Activity was -50% with Triticum aestivum [1], -85% with Triticum aestivum [3] and -1.59% in the data set on Triticum aestivum [4]. The molecule also gave a logKw in data set [2] of 4.39.

As to `O=Cc1c(-c2ccccc2)no[n+]1[O-]`, the Activity in the data set on Triticum aestivum [1] is -4%; with Triticum aestivum [3] it was 18%; with Triticum aestivum [4], -1.2%.

On to `[O-][n+]1onc(-c2ccccc2)c1CN1CCN(c2ncccn2)CC1`, for which the Activity was 0% with Triticum aestivum [1], 0% in the data set on Triticum aestivum [3] and -1.22% in the data set with Triticum aestivum [4].

Take `NC(=S)N/N=C/c1c(-c2ccccc2)no[n+]1[O-]`: the Activity with Triticum aestivum [1] is given as -30%; in the data set with Triticum aestivum [3], 8%; with Triticum aestivum [4], -1.03%. This molecule returned a logKw in data set [2] of 3.24.
